According to the NIST ThermoML archive (doi:10.1016/j.jct.2016.09.010):

Experiment: xn = mol fraction of the nth substance listed
Details: 100 kPa, Liquid; for speed of sound: Frequency=2 MHz, Linear variable-path acoustic interferometer; for mass density: Vibrating tube method

CCNc1ccccc1 [N-ethylaminobenzene] + CCOC(=O)C(C)O
Details | mass density, 303.15 K [kg/m3] | mass density, 308.15 K [kg/m3] | mass density, 313.15 K [kg/m3] | mass density, 318.15 K [kg/m3] | speed of sound, 303.15 K [m/s] | speed of sound, 308.15 K [m/s] | speed of sound, 313.15 K [m/s] | speed of sound, 318.15 K [m/s]
x2 = 0 | 952.41 | 947.69 | 942.95 | 938.23 | 1497 | 1481 | 1464 | 1448
x2 = 0.1195 | 960.29 | 955.52 | 950.71 | 945.92 | 1471.1 | 1455.4 | 1438.5 | 1422.6
x2 = 0.2183 | 966.93 | 962.08 | 957.2 | 952.34 | 1449.5 | 1433.6 | 1416.6 | 1400.6
x2 = 0.3177 | 973.69 | 968.76 | 963.8 | 958.86 | 1427.2 | 1411.2 | 1394 | 1377.7
x2 = 0.424 | 981.03 | 976.02 | 970.97 | 965.95 | 1402.7 | 1386.6 | 1369.2 | 1352.7
x2 = 0.5225 | 987.95 | 982.86 | 977.73 | 972.63 | 1379.6 | 1363.4 | 1345.8 | 1329.1
x2 = 0.6209 | 994.95 | 989.79 | 984.58 | 979.4 | 1355.9 | 1339.6 | 1321.8 | 1305
x2 = 0.726 | 1002.55 | 997.31 | 992.01 | 986.75 | 1330 | 1313.6 | 1295.6 | 1278.6
x2 = 0.8128 | 1008.91 | 1003.61 | 998.24 | 992.91 | 1308.3 | 1291.7 | 1273.6 | 1256.4
x2 = 0.9074 | 1015.91 | 1010.52 | 1005.09 | 999.68 | 1284.5 | 1267.6 | 1249.2 | 1231.8

CCOC(=O)C(C)O (stereo not drawn) [DL-ethyl lactate] + Nc1ccccc1
Details | mass density, 303.15 K [kg/m3] | mass density, 308.15 K [kg/m3] | mass density, 313.15 K [kg/m3] | mass density, 318.15 K [kg/m3] | speed of sound, 303.15 K [m/s] | speed of sound, 308.15 K [m/s] | speed of sound, 313.15 K [m/s] | speed of sound, 318.15 K [m/s]
x1 = 0.0788 | 1014.12 | 1010.12 | 1005.75 | 1001.3 | 1588.7 | 1570.3 | 1550.3 | 1531.4
x1 = 0.1638 | 1015.39 | 1011.23 | 1006.72 | 1002.15 | 1560.8 | 1542.5 | 1522.7 | 1504
x1 = 0.2514 | 1016.56 | 1012.23 | 1007.57 | 1002.88 | 1531.4 | 1513.2 | 1493.5 | 1474.8
x1 = 0.3445 | 1017.64 | 1013.15 | 1008.36 | 1003.55 | 1499.5 | 1481.4 | 1461.8 | 1443.2
x1 = 0.4393 | 1018.65 | 1014 | 1009.09 | 1004.17 | 1466.5 | 1448.5 | 1429 | 1410.5
x1 = 0.5461 | 1019.69 | 1014.87 | 1009.83 | 1004.79 | 1428.6 | 1410.8 | 1391.4 | 1373.1
x1 = 0.6484 | 1020.59 | 1015.62 | 1010.46 | 1005.31 | 1391.7 | 1374.1 | 1354.9 | 1336.8
x1 = 0.7644 | 1021.47 | 1016.33 | 1011.05 | 1005.79 | 1349.3 | 1331.9 | 1312.9 | 1295
x1 = 0.8737 | 1022.17 | 1016.88 | 1011.49 | 1006.13 | 1308.3 | 1291.1 | 1272.3 | 1254.7
x1 = 1 | 1022.88 | 1017.39 | 1011.83 | 1006.31 | 1261.1 | 1243.8 | 1224.8 | 1206.9

CNc1ccccc1 [N-methylaniline] + CCOC(=O)C(C)O
Details | mass density, 303.15 K [kg/m3] | mass density, 308.15 K [kg/m3] | mass density, 313.15 K [kg/m3] | mass density, 318.15 K [kg/m3] | speed of sound, 303.15 K [m/s] | speed of sound, 308.15 K [m/s] | speed of sound, 313.15 K [m/s] | speed of sound, 318.15 K [m/s]
x2 = 0 | 978.2 | 973.53 | 969.92 | 964.9 | 1547 | 1526.9 | 1511 | 1491.4
x2 = 0.1018 | 983.17 | 978.45 | 974.67 | 969.62 | 1520.1 | 1500.8 | 1485 | 1466.1
x2 = 0.1939 | 987.58 | 982.78 | 978.81 | 973.71 | 1495.5 | 1476.5 | 1460.5 | 1441.7
x2 = 0.2814 | 991.69 | 986.81 | 982.67 | 977.52 | 1471.8 | 1452.9 | 1436.6 | 1417.8
x2 = 0.3934 | 996.86 | 991.88 | 987.51 | 982.3 | 1440.7 | 1422.1 | 1405.4 | 1386.7
x2 = 0.491 | 1001.27 | 996.21 | 991.65 | 986.39 | 1413.1 | 1394.7 | 1377.7 | 1359.2
x2 = 0.5902 | 1005.66 | 1000.52 | 995.77 | 990.46 | 1384.5 | 1366.4 | 1349.1 | 1330.8
x2 = 0.6894 | 1009.96 | 1004.74 | 999.8 | 994.45 | 1355.5 | 1337.7 | 1320.1 | 1302
x2 = 0.7851 | 1014.03 | 1008.74 | 1003.62 | 998.22 | 1326.8 | 1309.5 | 1291.7 | 1273.8
x2 = 0.8937 | 1018.56 | 1013.19 | 1007.86 | 1002.41 | 1293.5 | 1276.4 | 1258.3 | 1240.7
